Source: patent US20260209214A1, “LSD1 MODULATORS” (RECURSION PHARMACEUTICALS, INC., priority 2022, published 2026)
Counter-ions that a name gives are not always drawn.

Molecular target: Recombinant human LSD1 (Homo sapiens, UniProt O60341)
Assay: LSD1 inhibition assay (HTRF LSD1 Histone H3K4 mono-demethylation assay, me1->me0)
Assay type: biochemical
Conditions: 20 nM recombinant human LSD1, 95 nM H3K4(me1) biotinylated peptide, 15 min preincubation, 60 min at 25° C., read-out: LSD1 inhibition IC50 (nM range)
How it was run: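 Recombinant human LSD1 (20 nM) pre-incubated 15 min with 10 semi-log compound doses, then 95 nM biotinylated H3K4me1 peptide for 60 min at 25 °C in pH 8.5 Tris/NaCl buffer with 10 μM FAD, 1 mM DTT. HTRF me0-antibody read after 90 min; IC50 from 4-parameter fit.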

SMILES | IC50
Cn1cc(-c2c(CC3CNCCO3)cccc2-c2ccc(C#N)c(F)c2)cn1 (centres unmarked) [Example 153, 3-fluoro-2′-(1-methyl-1H-pyrazol-4-yl)-3′-[(morpholin-2-yl)methyl]-[1,1′-biphenyl]-4-carbonitrile] | 25 to 100 nM
N#Cc1ccc(-c2cccc(COC3CCNC3)c2-c2cnco2)cc1F (centres unmarked) [Example 154, 3-fluoro-2′-(1,3-oxazol-5-yl)-3′-[(pyrrolidin-3-yloxy)methyl]-[1,1′-biphenyl]-4-carbonitrile] | 10 to 25 nM
CC1(O)CCN(c2ccc(CC3CNCCO3)c(F)c2-c2ccc(C#N)c(F)c2)CC1 (centres unmarked) [Example 155, 2′,3-difluoro-6′-(4-hydroxy-4-methylpiperidin-1-yl)-3′-[(morpholin-2-yl)methyl]-[1,1′-biphenyl]-4-carbonitrile] | 100 to 1000 nM
Cn1nccc1-c1c(CC2CNCCO2)cccc1-c1ccc(C#N)c(F)c1 (centres unmarked) [Example 156, 3-fluoro-2′-(1-methyl-1H-pyrazol-5-yl)-3′-[(morpholin-2-yl)methyl]-[1,1′-biphenyl]-4-carbonitrile] | 25 to 100 nM
N#Cc1ccc(-c2cc(CC3CNCCO3)ccc2-c2ccn3cnnc3c2)cc1F (centres unmarked) [Example 157, 3-fluoro-5′-[(morpholin-2-yl)methyl]-2′-{[1,2,4]triazolo[4,3-a]pyridin-7-yl}-[1,1′-biphenyl]-4-carbonitrile] | > 1000 nM
N#Cc1ccc(-c2cc(CC3CNCCO3)ccc2C2CCOCC2)cc1F (centres unmarked) [Example 158, 3-fluoro-5′-[(morpholin-2-yl)methyl]-2′-(oxan-4-yl)-[1,1′-biphenyl]-4-carbonitrile] | > 1000 nM
N#Cc1ccc(-c2cccc(CC3CNCCO3)c2N2CC(O)C2)cc1F (centres unmarked) [Example 159, 3-fluoro-2′-(3-hydroxyazetidin-1-yl)-3′-[(morpholin-2-yl)methyl]-[1,1′-biphenyl]-4-carbonitrile] | > 1000 nM
N#Cc1ccc(-c2cc(CC3CN4CCC4CO3)ccc2N2CCC2)cc1F (centres unmarked) [Example 160, 2′-(azetidin-1-yl)-3-fluoro-5′-({4-oxa-1-azabicyclo[4.2.0]octan-3-yl}methyl)-[1,1′-biphenyl]-4-carbonitrile] | > 1000 nM
CCc1cc(CC2CNCCO2)cc(-c2ccc(C#N)cc2)c1Cl (centres unmarked) [Example 161, 2′-chloro-3′-ethyl-5′-[(morpholin-2-yl)methyl]-[1,1′-biphenyl]-4-carbonitrile] | > 1000 nM
N#Cc1ccc(-c2cc(CC3CNCCO3)ccc2C2CCCC2)cc1 (centres unmarked) [Example 162, 2′-cyclopentyl-5′-[(morpholin-2-yl)methyl]-[1,1′-biphenyl]-4-carbonitrile] | > 1000 nM
CC(C)N1CCOC(Cc2ccc(N3CCC3)c(-c3ccc(C#N)c(F)c3)c2)C1 (centres unmarked) [Example 163, 2′-(azetidin-1-yl)-3-fluoro-5′-{[4-(propan-2-yl)morpholin-2-yl]methyl}-[1,1′-biphenyl]-4-carbonitrile] | 100 to 1000 nM
CCN1CCN(c2ccc(CC3CNCCO3)cc2-c2ccc(C#N)c(F)c2)CC1 (centres unmarked) [Example 164, 2′-(4-ethylpiperazin-1-yl)-3-fluoro-5′-[(morpholin-2-yl)methyl]-[1,1′-biphenyl]-4-carbonitrile] | 100 to 1000 nM
CC1(O)CC2(CN(c3ccc(CC4CNCCO4)cc3-c3ccc(C#N)c(F)c3)C2)C1 (centres unmarked) [Example 165, 3-fluoro-2′-{6-hydroxy-6-methyl-2-azaspiro[3.3]heptan-2-yl}-5′-[(morpholin-2-yl)methyl]-[1,1′-biphenyl]-4-carbonitrile] | 100 to 1000 nM
CN1CCC(O)(Cc2cccc(-c3ccc(C#N)c(F)c3)c2C2CC2)CC1 [Example 166, 2′-cyclopropyl-3-fluoro-3′-[(4-hydroxy-1-methylpiperidin-4-yl)methyl]-[1,1′-biphenyl]-4-carbonitrile] | 100 to 1000 nM
N#Cc1ccc(-c2cc(CC3CNCCO3)ccc2N2CCOCC2)cc1F (centres unmarked) [Example 167, 3-fluoro-5′-[(morpholin-2-yl)methyl]-2′-(morpholin-4-yl)-[1,1′-biphenyl]-4-carbonitrile] | > 1000 nM
N#Cc1ccc(-c2cc(C3CNCCO3)ccc2N2CCCCC2)cc1F (centres unmarked) [Example 168, 3-fluoro-5′-(morpholin-2-yl)-2′-(piperidin-1-yl)-[1,1′-biphenyl]-4-carbonitrile] | 100 to 1000 nM
N#Cc1ccc(-c2cccc(CN3C[C@]4(N)CC[C@H]3C4)c2-c2ccns2)cc1F [Example 171, 4-[3-[[(1S,4S)-4-amino-2-azabicyclo[2.2.1]heptan-2-yl]methyl]-2-isothiazol-5-yl-phenyl]-2-fluoro-benzonitrile hydrochloride] | 10 to 25 nM
N#Cc1ccc(-c2cccc(CN3C[C@]4(N)CC[C@H]3C4)c2N2CCC2)cc1F [Example 172, N[C@@]12CC[C@@H](C1)N(Cc3cccc(c4ccc(C#N)c(F)c4)c3N5CCC5)C2] | 10 to 25 nM

SMILES | IC50
N#Cc1ccc(-c2cccc(CN3C[C@]4(N)CC[C@H]3C4)c2-c2ocnc2F)cc1F [Example 174, 3'-{[(1S,4S)-4-amino-2-azabicyclo[2.2.1]heptan-2-yl]methyl}-3-fluoro-2'-(4-fluoro-1,3-oxazol-5-yl)-[1,1'-biphenyl]-4-carbonitrile] | 10 to 25 nM
N#Cc1ccc(-c2cccc(CN3C[C@]4(N)CC[C@H]3C4)c2OC(F)F)cc1F [Example 177, 3'-{[(1S,4S)-4-amino-2-azabicyclo[2.2.1]heptan-2-yl]methyl}-2'-(difluoromethoxy)-3-fluoro-[1,1'-biphenyl]-4-carbonitrile] | < 10 nM
N#Cc1ccc(-c2cccc(CN3C[C@]4(N)CC[C@H]3C4)c2C2CC2)cc1 [Example 184, 3'-{[(1S,4S)-4-amino-2-azabicyclo[2.2.1]heptan-2-yl]methyl}-2'-cyclopropyl-[1,1'-biphenyl]-4-carbonitrile] | 25 to 100 nM
N#Cc1ccc(-c2ccc(F)c(CN3C[C@]4(N)CC[C@H]3C4)c2-c2ccns2)cc1F [Example 185, 3'-{[(1S,4S)-4-amino-2-azabicyclo[2.2.1]heptan-2-yl]methyl}-3,4'-difluoro-2'-(1,2-thiazol-5-yl)-[1,1'-biphenyl]-4-carbonitrile] | < 10 nM
N#Cc1ccc(-c2cccc(CN3C[C@]4(N)CC[C@H]3C4)c2-c2scnc2Cl)cc1F [Example 188, 3'-{[(1S,4S)-4-amino-2-azabicyclo[2.2.1]heptan-2-yl]methyl}-2'-(4-chloro-1,3-thiazol-5-yl)-3-fluoro-[1,1'-biphenyl]-4-carbonitrile] | 10 to 25 nM
N#Cc1ccc(-c2ccc(F)c(CN3C[C@]4(N)CC[C@H]3C4)c2C2CC2)cc1F [Example 189, 3'-{[(1S,4S)-4-amino-2-azabicyclo[2.2.1]heptan-2-yl]methyl}-2'-cyclopropyl-3,4'-difluoro-[1,1'-biphenyl]-4-carbonitrile] | 10 to 25 nM
N#Cc1ccc(-c2cccc(CN3[C@@H]4CC[C@H]3[C@@H](N)C4)c2-c2ccns2)cc1F [Example 192, N[C@H]1C[C@H]2CC[C@@H]1N2Cc3cccc(c4ccc(C#N)c(F)c4)c3c5ccns5] | < 10 nM
N#Cc1ccc(-c2cccc(CN3C[C@]4(N)CC[C@H]3C4)c2C2CC2)cc1F [Example 193, 3'-{[(1S,4S)-4-amino-2-azabicyclo[2.2.1]heptan-2-yl]methyl}-2'-cyclopropyl-3-fluoro-[1,1'-biphenyl]-4-carbonitrile] | 10 to 25 nM
CN[C@]12CC[C@H](C1)N(Cc1cccc(-c3ccc(C#N)c(F)c3)c1C1CC1)C2 [Example 195, 2'-cyclopropyl-3-fluoro-3'-{[(1R,4R)-4-(methylamino)-2-azabicyclo[2.2.1]heptan-2-yl]methyl}-[1,1'-biphenyl]-4-carbonitrile] | 10 to 25 nM
N#Cc1ccc(-c2cccc(CN3C[C@]4(N)CC[C@H]3C4)c2Cl)cc1F [Example 196, 3'-{[(1S,4S)-4-amino-2-azabicyclo[2.2.1]heptan-2-yl]methyl}-2'-chloro-3-fluoro-[1,1'-biphenyl]-4-carbonitrile] | 25 to 100 nM
CC1(C)CN(Cc2cccc(-c3ccc(C#N)c(F)c3)c2-c2ccns2)CC1N (centres unmarked) [Example 198, 3'-[(4-amino-3,3-dimethylpyrrolidin-1-yl)methyl]-3-fluoro-2'-(1,2-thiazol-5-yl)-[1,1'-biphenyl]-4-carbonitrile] | 10 to 25 nM
N#Cc1ccc(-c2cccc(CN3CCC4CC3CN4)c2C2CC2)cc1F (centres unmarked) [Example 199, 2'-cyclopropyl-3'-({2,6-diazabicyclo[3.2.1]octan-2-yl}methyl)-3-fluoro-[1,1'-biphenyl]-4-carbonitrile] | 10 to 25 nM
C[C@]1(N)CCN(Cc2cccc(-c3ccc(C#N)c(F)c3)c2C2CC2)C1 [Example 202, 3'-{[(3S)-3-amino-3-methylpyrrolidin-1-yl]methyl}-2'-cyclopropyl-3-fluoro-[1,1'-biphenyl]-4-carbonitrile] | 25 to 100 nM
CC1(N)CCN(Cc2cccc(-c3ccc(C#N)c(F)c3)c2C2CC2)CC1 [Example 205, 3'-[(4-amino-4-methylpiperidin-1-yl)methyl]-2'-cyclopropyl-3-fluoro-[1,1'-biphenyl]-4-carbonitrile] | 25 to 100 nM
N#Cc1ccc(-c2ccc(F)c(CN3C[C@]4(N)CC[C@H]3C4)c2Cl)cc1F [Example 208, 3'-{[(1S,4S)-4-amino-2-azabicyclo[2.2.1]heptan-2-yl]methyl}-2'-chloro-3,4'-difluoro-[1,1'-biphenyl]-4-carbonitrile] | 25 to 100 nM
N#Cc1ccc(-c2cccc(CN3CC4CCC(C3)N4)c2C2CC2)cc1F [Example 210, 2'-cyclopropyl-3'-({3,8-diazabicyclo[3.2.1]octan-3-yl}methyl)-3-fluoro-[1,1'-biphenyl]-4-carbonitrile] | 10 to 25 nM
CN[C@H]1CCN(Cc2cccc(-c3ccc(C#N)c(F)c3)c2C2CC2)C1 [Example 211, 2'-cyclopropyl-3-fluoro-3'-{[(3S)-3-(methylamino)pyrrolidin-1-yl]methyl}-[1,1'-biphenyl]-4-carbonitrile] | 25 to 100 nM
